Measured values from patent publication US20050004155A1, “Use of methylnaltrexone to treat irritable bowel syndrome” (priority 2003, published 2005).

Assays:
[1] = white crystalline powder; cited from earlier work
normal subjects [2] = experiment: Oral-cecal transit time by lactulose hydrogen breath test; assay type: in vivo, human; details: 12 doses of 0.3 mg/kg every 6 hours intravenous; 12 normal subjects not receiving opioids; mean±SD; baseline mean 101.3±29.4 minutes; P<0.05
Experimental: (§1) With approval from the Institutional Review Board, 12 normal subjects (8 males and 4 non-pregnant females) participated in a controlled trial. The mean age was 29.3±5.8 (mean+/−standard deviation [SD]) years. […] Subjects were administered 12 consecutive doses of methylnaltrexone at a dosage rate of 0.3 mg/kg every 6 hours via intravenous injection. Methylnaltrexone was dissolved in isotonic saline for administration in this study. No other excipients were present in the administered solution. Oral-cecal transit time was measured prior to the first dose and after the last dose, following repeated dosing for 3 days, using a lactulose hydrogen breath test (Yuan, C. S., et al., Clin. Pharmacol. Ther. 1996;59:469-475). A subjective rating test for possible opioid agonist effects was also employed (Yuan, C. S., et al., Drug Alcohol Dependence 1998;52:161-165). […] The reduction in the means was statistically significant at the level of P<0.05 using the paired t-test and the Wilcoxon signed rank test. […] The absence of statistically significant changes in overall subjective opioid ratings is consistent with the lack of penetration into the central nervous system by methylnaltrexone.

normal subjects [3] = experiment: Adverse effects during repeated intravenous dosing; assay type: in vivo, human; details: 12 doses of 0.3 mg/kg every 6 hours intravenous
Experimental: as §1

[4] = test system: patients with constipation-predominant IBS; details: 16 mg three times a week over eight weeks, cited from earlier work
[5] = test system: subjects with IBS of the constipation-predominant and alternating types; details: 1 mg twice daily for 8 weeks; 25 subjects; cited from earlier work
patients with IBS = details: 0.4 mg intravenously; 50 patients; versus placebo; cited from earlier work

C[N@+]1(CC2CC2)CC[C@]23c4c5ccc(O)c4O[C@H]2C(=O)CC[C@@]3(O)[C@H]1C5 [methylnaltrexone, N-methyl-naltrexone bromide]
solubility in water [1]: freely soluble in water
oral-cecal transit time after 3 days of treatment (normal subjects [2]): 82.5 ± 20.7 min
adverse effects (normal subjects [3]): No significant adverse effects

C=C1CCC2(O)C3Cc4ccc(OC5OC(C(=O)O)C(O)C(O)C5O)c5c4C2(CCN3CC2CC2)C1O5 (stereo not shown) [nalmefene glucuronide]
gut transit time ([4]; patient reported): decreased
stool frequency ([4]; patient reported): increased
abdominal pain or bloating [4]: did not reduce
stool consistency [4]: not improved

C=CCN1CC[C@]23c4c5ccc(O)c4O[C@H]2C(=O)CC[C@@]3(O)[C@H]1C5 [naloxone]
adequate symptom relief versus placebo [5]: not statistically significantly different
subjective ratings such as severity ratings and pain scores [5]: Marginal but non-statistically significant improvements
degree of muscle spasm and relative intensity of pain (patients with IBS): not associated with any objective or subjective evidence of beneficial effect
